Results: US6451576B1, “Sesquiterpene synthases from grand fir (Abies grandis), and methods of use” (Washington State University Research Foundation, priority 1998, dated 2002)

Columns and labels:
[1] = biological target: T1, δ-selinene synthase (SEQ ID No:20) (Abies grandis, UniProt O64404); assay: Kinetic parameters, metal ion requirement and substrate specificity of recombinant δ-selinene synthase; assay type: biochemical; details: for Km: read-out: Km value for divalent metal ion
T1 construct: made in house; host or cells: E. coli XL1-Blue/pGAG4 or E. coli BL21(DE3)/pSBAG4
T1 sequence (O64404 1-581): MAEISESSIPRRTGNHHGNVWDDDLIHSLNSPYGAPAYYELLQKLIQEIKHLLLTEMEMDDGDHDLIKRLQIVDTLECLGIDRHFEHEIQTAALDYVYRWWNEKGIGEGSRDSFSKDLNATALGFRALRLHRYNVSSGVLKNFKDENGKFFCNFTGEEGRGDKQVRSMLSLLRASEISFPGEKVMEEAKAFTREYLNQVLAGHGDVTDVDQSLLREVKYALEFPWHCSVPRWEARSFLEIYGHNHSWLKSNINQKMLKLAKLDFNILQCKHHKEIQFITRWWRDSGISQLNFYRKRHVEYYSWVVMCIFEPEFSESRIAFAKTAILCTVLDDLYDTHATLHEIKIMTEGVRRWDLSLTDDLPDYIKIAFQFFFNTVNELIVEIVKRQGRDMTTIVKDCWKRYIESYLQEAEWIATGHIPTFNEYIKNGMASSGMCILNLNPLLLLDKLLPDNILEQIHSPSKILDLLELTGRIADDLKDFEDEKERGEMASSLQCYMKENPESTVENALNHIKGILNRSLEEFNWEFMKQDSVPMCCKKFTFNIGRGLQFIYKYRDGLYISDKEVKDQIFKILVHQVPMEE
Method: (§1) The assay for recombinant sesquiterpene synthase (cyclase) activity was performed in 1 ml of buffer (extraction buffer without MnCl2 or the polymeric adsorbents) containing 3.5 μM [1-^3H]farnesyl diphosphate and the total protein extracted from a 5 ml bacterial culture to produce 10^5-10^6 dpm of product in 2 h at 31° C. The incubation mixture was overlaid with 1 ml pentane to trap volatile products. After incubation, the reaction mixture was extracted with pentane (3×1 ml) and the combined extract was passed through a MgSO4-silica gel column to provide the terpene hydrocarbon fractions as before. The columns were subsequently eluted with 3×1 ml of ether to collect any oxygenated products, and an aliquot of each fraction was taken for liquid scintillation counting to determine conversion rate. The monoterpene synthase and diterpene synthase activity assays were similarly performed as described in detail elsewhere (LaFever, R. E., et al., (1994) Arch. Biochem. Biophys. 313, 139-149; Bohlmann, J., et al., (1997) J. Biol. Chem. 272, 21784-21792; Lewinsohn, E., et al., (1991) Plant Physiol. 96, 38-43).
(§2) The substrate specificity and other kinetic. parameters of γ-humulene synthase (SEQ ID No:24) and δ-selinene synthase (SEQ ID No:20) were investigated in order to confirm the identification and classification of these enzymes. […] Neither of these sesquiterpene synthases requires K^+ or other monovalent cation for activity.
(§3) Substrate specificity of δ-selinene synthase (SEQ ID No:20) and γ-humulene synthase (SEQ ID No:24) was evaluated by comparing farnesyl diphosphate (C15) to geranyl diphosphate (C10) and geranylgeranyl diphosphate (C20) at saturation as precursors of the respective terpene olefins. […] The identities of the monoterpene products produced by the sesquiterpene synthases were determined by GLC-MS and are set forth in FIG. 4.

[2] = biological target: T2, γ-humulene synthase (SEQ ID No:24) (Abies grandis, UniProt O64405); assay: Kinetic parameters, metal ion requirement and substrate specificity of recombinant γ-humulene synthase; assay type: biochemical; details: for monoterpene product formed from geranyl diphosphate: GLC-MS; for Km: read-out: Km value for divalent metal ion
T2 construct: For further subcloning of the amplified, full-length cDNA into the pSBETa vector for high-level expression, the pGAG5 insert was amplified; made in house; host or cells: E. coli XL1-Blue/pGAG5 or E. coli BL21(DE3)/pSBAG5
T2 sequence (O64405 1-593): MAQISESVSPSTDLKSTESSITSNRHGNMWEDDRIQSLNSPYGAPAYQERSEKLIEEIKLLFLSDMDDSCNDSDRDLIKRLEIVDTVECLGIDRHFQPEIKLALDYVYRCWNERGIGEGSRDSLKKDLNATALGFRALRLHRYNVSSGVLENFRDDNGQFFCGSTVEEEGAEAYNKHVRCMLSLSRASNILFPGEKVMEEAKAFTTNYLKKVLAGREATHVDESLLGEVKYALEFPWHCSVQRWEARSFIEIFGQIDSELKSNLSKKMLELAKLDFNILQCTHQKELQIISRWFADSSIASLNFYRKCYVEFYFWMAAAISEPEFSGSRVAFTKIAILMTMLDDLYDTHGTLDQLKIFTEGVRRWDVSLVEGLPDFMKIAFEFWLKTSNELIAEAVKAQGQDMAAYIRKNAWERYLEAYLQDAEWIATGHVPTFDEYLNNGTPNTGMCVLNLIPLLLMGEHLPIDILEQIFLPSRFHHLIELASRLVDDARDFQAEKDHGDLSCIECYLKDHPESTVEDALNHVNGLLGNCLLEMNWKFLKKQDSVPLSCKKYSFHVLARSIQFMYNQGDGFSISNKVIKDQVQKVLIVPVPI
Method: as §1, §2, §3

[3] = tested on: insect larvae; details: present in paper made from trees of the genus Abies; cited from earlier work
[4] = tested on: partially purified inducible sesquiterpene synthases; assay: Sesquiterpene synthase assay with partially purified extract of wounded grand fir stems; assay type: biochemical, Abies grandis; details: partially purified inducible sesquiterpene synthases from wounded stems; read-out: Km value for [1-3H]farnesyl diphosphate
Description: Grand fir saplings in active growth were used as the enzyme source for determination of constitutive terpenoid synthases and of terpenoid synthases which had been induced in wounded stems by a standard wounding protocol (Funk, C., et al., (1994) Plant Physiol. 106, 999-1005). Stems from control saplings and saplings eight days after wounding (usually ten saplings) were harvested by removing the top and lateral growth, and cutting at about 5 cm from the base. The stems were chopped into 5-7 cm segments, frozen in liquid N2 and, following removal of any needles, were ground to a powder in a liquid N2-chilled No. 1 Wiley mill. The frozen powder was added to chilled extraction buffer (5 ml/g fresh tissue weight) consisting of 10 mM dibasic potassium phosphate and 1.8 mM monobasic potassium phosphate (pH 7.3), 140 mM NaCl, 20 mM β-mercaptoethanol, 10 mM MgCl2, 5 mM MnCl2, 10% (v/v) glycerol and 1% (w/v) each of polyvinylpyrrolidone (Mr 40,000) and polyvinylpolypyrrolidone. […]
Liquid scintillation counting was performed in 10 ml toluene:ethanol (7:3, v/v) containing 0.4% (w/v) Omnifluor (DuPont-NEN) at a ^3H counting efficiency of 43%. Protein concentrations were determined by the method of Bradford (Bradford, M. M. (1976) Anal. Biochem. 72, 248-254) using the Bio-Rad reagent and bovine serum albumin as standard. […]

[5] = substrate: CC(C)=CCC/C(C)=C/CC/C(C)=C/CO[P@@](=O)(O)OP(=O)(O)O; assay: Kinetic parameters, metal ion requirement and substrate specificity of recombinant γ-humulene synthase; assay type: biochemical, Abies grandis; details: other: γ-humulene synthase; estimated; 31.0 °C
Method: as §1, with “The monoterpene synthase and diterpene synthase activity assays were similarly performed as described in detail elsewhere (LaFever, R. E., et al., (1994) Arch. Biochem. Biophys. 313, 139-149; Bohlmann, J., et al., (1997) J. Biol. Chem. 272, 21784-21792; Lewinsohn, E., et al., (1991) Plant Physiol. 96, 38-43).” left out
as §3

[6] = substrate: CC(C)=CCC/C(C)=C/CC/C(C)=C/CO[P@@](=O)(O)OP(=O)(O)O; assay: Kinetic parameters, metal ion requirement and substrate specificity of recombinant δ-selinene synthase; assay type: biochemical, Abies grandis; details: other: δ-selinene synthase; estimated; 31.0 °C
Method: as §1, with “The monoterpene synthase and diterpene synthase activity assays were similarly performed as described in detail elsewhere (LaFever, R. E., et al., (1994) Arch. Biochem. Biophys. 313, 139-149; Bohlmann, J., et al., (1997) J. Biol. Chem. 272, 21784-21792; Lewinsohn, E., et al., (1991) Plant Physiol. 96, 38-43).” left out
as §3

C=C/C(C)=C/CC=C(C)C [E-ocimene]
contribution to monoterpene products formed from geranyl diphosphate ([1]; GLC-MS): 22.4% | monoterpene product formed from geranyl diphosphate [2]: not detectable

COC(=O)C1=CC[C@H]([C@H](C)CC(=O)CC(C)C)CC1 [Juvabione]
effect on maturation of insect larvae [3]: inhibits maturation of insect larvae

C=C(C)[C@H]1CC=C(C)CC1 [Limonene]
monoterpene product formed from geranyl diphosphate ([1]; GLC-MS): principal monoterpene product | monoterpene product formed from geranyl diphosphate [2]: principal monoterpene product

[Mg+2] [Mg^2+]
Km [1]: ~125 µM | metal ion utilization in the cyclization reaction [2]: comparable velocities | Km [2]: ~125 µM

[Mn+2] [Mn^2+]
maximum rate relative to that with Mg2+ at saturation [1]: less than 10% | Km [1]: ~25 µM | metal ion utilization in the cyclization reaction [2]: comparable velocities | Km [2]: ~25 µM

CC(C)=CCC/C(C)=C/CC/C(C)=C/CO[P@@](=O)(O)OP(=O)(O)O [[1-^3H]farnesyl diphosphate]
Km [4]: ~0.4 µM

C=C1C2CCC(C2)C1(C)C (centres unmarked) [camphene]
monoterpene product formed from geranyl diphosphate ([1]; GLC-MS): does not produce | monoterpene product formed from geranyl diphosphate [2]: detectable amounts

B1: γ-humulene synthase (SEQ ID No:24) (Abies grandis) (protein)
chain: MAQISESVSPSTDLKSTESSITSNRHGNMWEDDRIQSLNSPYGAPAYQERSEKLIEEIKLLFLSDMDDSCNDSDRDLIKRLEIVDTVECLGIDRHFQPEIKLALDYVYRCWNERGIGEGSRDSLKKDLNATALGFRALRLHRYNVSSGVLENFRDDNGQFFCGSTVEEEGAEAYNKHVRCMLSLSRASNILFPGEKVMEEAKAFTTNYLKKVLAGREATHVDESLLGEVKYALEFPWHCSVQRWEARSFIEIFGQIDSELKSNLSKKMLELAKLDFNILQCTHQKELQIISRWFADSSIASLNFYRKCYVEFYFWMAAAISEPEFSGSRVAFTKIAILMTMLDDLYDTHGTLDQLKIFTEGVRRWDVSLVEGLPDFMKIAFEFWLKTSNELIAEAVKAQGQDMAAYIRKNAWERYLEAYLQDAEWIATGHVPTFDEYLNNGTPNTGMCVLNLIPLLLMGEHLPIDILEQIFLPSRFHHLIELASRLVDDARDFQAEKDHGDLSCIECYLKDHPESTVEDALNHVNGLLGNCLLEMNWKFLKKQDSVPLSCKKYSFHVLARSIQFMYNQGDGFSISNKVIKDQVQKVLIVPVPI
notes: For further subcloning of the amplified, full-length cDNA into the pSBETa vector for high-level expression, the pGAG5 insert was amplified; made in house; host or cells: E. coli XL1-Blue/pGAG5 or E. coli BL21(DE3)/pSBAG5
Km [5]: 4.5 µM

B2: δ-selinene synthase (SEQ ID No:20) (Abies grandis) (protein)
chain: MAEISESSIPRRTGNHHGNVWDDDLIHSLNSPYGAPAYYELLQKLIQEIKHLLLTEMEMDDGDHDLIKRLQIVDTLECLGIDRHFEHEIQTAALDYVYRWWNEKGIGEGSRDSFSKDLNATALGFRALRLHRYNVSSGVLKNFKDENGKFFCNFTGEEGRGDKQVRSMLSLLRASEISFPGEKVMEEAKAFTREYLNQVLAGHGDVTDVDQSLLREVKYALEFPWHCSVPRWEARSFLEIYGHNHSWLKSNINQKMLKLAKLDFNILQCKHHKEIQFITRWWRDSGISQLNFYRKRHVEYYSWVVMCIFEPEFSESRIAFAKTAILCTVLDDLYDTHATLHEIKIMTEGVRRWDLSLTDDLPDYIKIAFQFFFNTVNELIVEIVKRQGRDMTTIVKDCWKRYIESYLQEAEWIATGHIPTFNEYIKNGMASSGMCILNLNPLLLLDKLLPDNILEQIHSPSKILDLLELTGRIADDLKDFEDEKERGEMASSLQCYMKENPESTVENALNHIKGILNRSLEEFNWEFMKQDSVPMCCKKFTFNIGRGLQFIYKYRDGLYISDKEVKDQIFKILVHQVPMEE
notes: made in house; host or cells: E. coli XL1-Blue/pGAG4 or E. coli BL21(DE3)/pSBAG4
Km [6]: 1.5 µM
